PMC8864165, “Functional Effects of ARV-1502 Analogs Against Bacterial Hsp70 and Implications for Antimicrobial Activity” (Frontiers in Chemistry, 2022)
Square brackets hold non-standard residues; d marks the D form. Peptide text beside a SMILES is read from it. Ac6c = NC1(C(=O)O)CCCCC1

What was measured:
[1] = test system: E. coli DnaK/DnaJ/GrpE-chaperone system; assay: ATPase activity assay (malachite green), chaperone system; assay type: biochemical, Escherichia coli; conditions: peptide screen, 0.3 mmol/L peptide; for ATPase activity of the E. coli DnaK/DnaJ/GrpE system, normalized to activity without peptide (100%): 37°C, 2 h, triplicates
Procedure: (§1) ATPase activity of E. coli and S. aureus chaperones was studied in the presence of an AMP using a 384-well plate colorimetric assay ([Chang et al., 2008]; [Zahn et al., 2013]). […] The chaperone mix (13.5 µL) was incubated with an aqueous peptide solution (1.5 µL; final concentration 0.3 mmol/L) at 37°C for 30 min in a non-binding 384-well plate (flat bottom, Greiner Bio-One GmbH). Each sample was prepared in triplicates on the same plate. The reaction was started by addition of ATP dissolved in assay buffer (5 µL, 4 mmol/L) and the plate centrifuged (500 × g, 2 min; Allegra™ 21R, Beckmann Coulter, Krefeld, Germany) before incubated (37°C, 2 h). The released phosphate was quantified using an external phosphate dilution series (10–200 µmol/L KH2PO4 in assay buffer) prepared on each plate and treated equally as the samples. The reaction was stopped by adding assay buffer (80 µL) to all samples except the phosphate dilution series. Aliquots of all samples (10 µL) were transferred to a clear 384-well plate (flat bottom, Greiner Bio-One GmbH) and malachite green reagent added (90 µL; mixture of malachite green in water (0.04%, w/v), ammonium molybdate (2%, w/w) in aqueous sulfuric acid (3.5 mol/L), and water at a ratio of 1:1:3.6, v/v/v). After 15 min, the absorbance was recorded at 620 nm on the […]™ microplate reader. The phosphate standard curve was fitted by a hyperbolic equation y = (ax)/(b + x) + c.

[2] = target: T1, S. aureus DnaK (Staphylococcus aureus, UniProt P99110); assay: FP peptide binding screening against Cf-ARV-1502; conditions: screening: DnaK 16 µmol/L, unlabeled peptide 35 µmol/L, duplicate, below 1 = better than ARV-1502
T1 construct: His6-tag with TEV site ([…]) (N, cleaved yes); made in house; host or cells: E. coli (DE3) Rosetta pLysS
T1 sequence (P99110 whole entry): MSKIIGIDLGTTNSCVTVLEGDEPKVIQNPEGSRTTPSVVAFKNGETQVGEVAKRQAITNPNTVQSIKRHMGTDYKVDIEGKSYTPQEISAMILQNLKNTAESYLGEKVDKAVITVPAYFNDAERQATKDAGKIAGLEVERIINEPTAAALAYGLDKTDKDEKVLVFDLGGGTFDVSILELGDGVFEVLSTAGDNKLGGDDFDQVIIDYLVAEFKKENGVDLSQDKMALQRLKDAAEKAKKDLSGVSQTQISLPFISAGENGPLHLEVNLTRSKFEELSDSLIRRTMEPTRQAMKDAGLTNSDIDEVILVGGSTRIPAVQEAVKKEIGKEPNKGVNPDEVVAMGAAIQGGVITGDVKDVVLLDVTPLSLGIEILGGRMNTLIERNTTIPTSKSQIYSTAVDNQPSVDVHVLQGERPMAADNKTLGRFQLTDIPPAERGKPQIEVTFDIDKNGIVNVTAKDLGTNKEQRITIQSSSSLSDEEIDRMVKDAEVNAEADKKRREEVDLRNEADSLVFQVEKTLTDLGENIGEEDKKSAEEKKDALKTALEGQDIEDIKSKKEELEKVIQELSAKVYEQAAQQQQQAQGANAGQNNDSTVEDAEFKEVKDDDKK

[3] = target: T2, E. coli DnaK (Escherichia coli, UniProt P0A6Y8); assay type: binding
T2 construct: His6-tag with TEV site ([…]) (N, cleaved yes); made in house; host or cells: E. coli (DE3) Rosetta pLysS
T2 sequence (P0A6Y8 whole entry): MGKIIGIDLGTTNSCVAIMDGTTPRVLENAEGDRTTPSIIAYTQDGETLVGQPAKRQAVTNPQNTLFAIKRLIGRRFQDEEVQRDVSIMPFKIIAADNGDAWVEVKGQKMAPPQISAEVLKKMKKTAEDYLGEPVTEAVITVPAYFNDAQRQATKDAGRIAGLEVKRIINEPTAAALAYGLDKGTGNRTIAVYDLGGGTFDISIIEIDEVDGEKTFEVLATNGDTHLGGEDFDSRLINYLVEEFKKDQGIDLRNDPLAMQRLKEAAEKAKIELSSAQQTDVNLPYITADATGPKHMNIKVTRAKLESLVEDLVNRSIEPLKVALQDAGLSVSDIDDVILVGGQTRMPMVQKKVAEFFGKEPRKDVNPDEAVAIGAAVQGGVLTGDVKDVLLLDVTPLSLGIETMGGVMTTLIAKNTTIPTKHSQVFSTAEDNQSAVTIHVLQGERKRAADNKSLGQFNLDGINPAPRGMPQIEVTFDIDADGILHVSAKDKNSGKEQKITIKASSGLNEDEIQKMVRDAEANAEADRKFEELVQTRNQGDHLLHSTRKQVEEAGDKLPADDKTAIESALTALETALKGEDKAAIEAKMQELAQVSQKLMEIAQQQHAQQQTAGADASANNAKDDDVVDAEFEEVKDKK
Procedure: The plate was incubated (90 min, 28°C, dark) and Cf-ARV-1502 (80 nmol/L; 10 µL/well) added. […] Each peptide was screened in duplicate. Control samples either lacked the unlabeled peptide (maximum) or contained Cf-ARV-1502 in buffer (minimum).
(§2) The quality of the experimental set up was evaluated by the Z′ factor ([Zhang et al., 1999]) (Supplementary Table S2). […] The obtained FP-values were normalized to the FP-values determined for lead sequence ARV-1502.

[4] = test system: S. aureus DnaK/DnaJ/GrpE-chaperone system; assay: ATPase activity assay (malachite green), chaperone system; assay type: biochemical, Staphylococcus aureus; conditions: peptide screen, 0.3 mmol/L peptide; for ATPase activity of the S. aureus DnaK/DnaJ/GrpE system, normalized to activity without peptide (100%): 37°C, 2 h, triplicates
Procedure: as §1

[5] = target: T1, S. aureus DnaK; assay: Competitive fluorescence polarization Ki; assay type: binding; conditions: unlabeled peptide competing with Cf-labeled peptide; DnaK 16 µmol/L; 90 + 90 min, 28°C
Procedure: as §2

[6] = target: T2, E. coli DnaK; assay: Competitive fluorescence polarization Ki; assay type: binding; conditions: unlabeled peptide competing with Cf-labeled peptide; DnaK 5 µmol/L; 90 + 90 min, 28°C
Procedure: as §2

Compound	binding to S. aureus DnaK, FP-value normalized to ARV-1502 [2]	binding to E. coli DnaK, FP-value normalized to ARV-1502 [3]	also measured
Chex-RPDDPRPYLPRDRPPRPVR-NH2 [compound 68, substituted analog of ARV-1502]			decrease of ATPase activity, E. coli chaperone system [1]: 50%
Chex-RPDKPRPYKPDPRPPRPVR-NH2 [compound 160, substituted analog of ARV-1502]	best binders		
Chex-RPFFPRPSLPRPRPPRPVR-NH2 [compound 91, substituted analog of ARV-1502]	best binders	best binders	
Chex-RPDKPRPDLPRDRPPRPVR-NH2 [compound 117, substituted analog of ARV-1502]			ATPase activity of the E. coli DnaK/DnaJ/GrpE system, normalized to activity without peptide (100%) [1]: below 60%; increase of ATPase activity, S. aureus chaperone system [4]: ≥ 60%
Chex-RPDDPRPKLPRPRPPRPVR-NH2 [compound 54, substituted analog of ARV-1502]	best binders		
Chex-RPDKPRPSLDRPRPPRPVR-NH2 [compound 128, substituted analog of ARV-1502]			ATPase activity of the E. coli DnaK/DnaJ/GrpE system, normalized to activity without peptide (100%) [1]: below 60%
Chex-RPDKPRPYSPDPRPPRPVR-NH2 [compound 170, substituted analog of ARV-1502]	best binders		
Chex-RPFFPRPYLPSPRPPRPVR-NH2 [compound 101, substituted analog of ARV-1502]	best binders	best binders	
Chex-RPDKPRPDLPRSRPPRPVR-NH2 [compound 119, substituted analog of ARV-1502]			ATPase activity of the S. aureus DnaK/DnaJ/GrpE system, normalized to activity without peptide (100%) [4]: more than 160%
Chex-RPDKPRPKSPRPRPPRPVR-NH2 [compound 122, substituted analog of ARV-1502]	bound neither	bound neither	
Chex-RPDKPRPDDPRPRPPRPVR-NH2 [compound 107, substituted analog of ARV-1502]			increase of ATPase activity, S. aureus chaperone system [4]: ≥ 60%
CC(C)C[C@H](NC(=O)[C@H](Cc1ccc(O)cc1)NC(=O)[C@@H]1CCCN1C(=O)[C@H](CCCNC(=N)N)NC(=O)[C@@H]1CCCN1C(=O)[C@H](CCCCN)NC(=O)[C@H](CCCCN)NC(=O)[C@@H]1CCCN1C(=O)[C@H](CCCNC(=N)N)NC(=O)C1(N)CCCCC1)C(=O)N1CCC[C@H]1C(=O)N[C@@H](Cc1ccccc1)C(=O)N1CCC[C@H]1C(=O)N[C@@H](CCCNC(=N)N)C(=O)N1CCC[C@H]1C(=O)N1CCC[C@H]1C(=O)N[C@@H](CCCNC(=N)N)C(=O)N1CCC[C@H]1C(=O)N[C@H](C(=O)N[C@@H](CCCNC(=N)N)C(N)=O)C(C)C [compound 46] (H-[Ac6c]RPKKPRPYLPFPRPPRPVR-NH2)			Ki [5]: 15.6 µM; Ki [6]: 660 nM
Chex-RPDDPRPYLPLPRPPRPVR-NH2 [compound 66, substituted analog of ARV-1502]			decrease of ATPase activity, E. coli chaperone system [1]: at least 40%; ATPase activity of the E. coli DnaK/DnaJ/GrpE system, normalized to activity without peptide (100%) [1]: below 60%
CC(C)C[C@H](NC(=O)[C@H](Cc1ccc(O)cc1)NC(=O)[C@@H]1CCCN1C(=O)[C@H](CCCNC(=N)N)NC(=O)[C@@H]1CCCN1C(=O)[C@H](CCCCN)NC(=O)[C@H](CCCCN)NC(=O)[C@@H]1CCCN1C(=O)[C@H](CCCNC(=N)N)NC(=O)C1(N)CCCCC1)C(=O)N1CCC[C@H]1C(=O)N[C@@H](CCCNC(=N)N)C(=O)N1CCC[C@H]1C(=O)N[C@@H](CCCNC(=N)N)C(=O)N1CCC[C@H]1C(=O)N1CCC[C@H]1C(=O)N[C@@H](CCCNC(=N)N)C(=O)N1CCC[C@H]1C(=O)N[C@H](C(=O)N[C@@H](CCCNC(=N)N)C(N)=O)C(C)C [peptide 2] (H-[Ac6c]RPKKPRPYLPRPRPPRPVR-NH2)			Ki [6]: 600 nM
Chex-RPDKPRPSLPRSRPPRPVR-NH2 [compound 133, substituted analog of ARV-1502]	best binders		
Chex-RPDKPRPYSPLPRPPRPVR-NH2 [compound 172, substituted analog of ARV-1502]	best binders		
Chex-RPFFPRPKLPRPRPPRPVR-NH2 [compound 90, substituted analog of ARV-1502]	best binders	best binders	
CC(C)C[C@H](NC(=O)[C@H](Cc1ccc(O)cc1)NC(=O)[C@@H]1CCCN1C(=O)[C@H](CCCNC(=N)N)NC(=O)[C@@H]1CCCN1C(=O)[C@H](Cc1ccccc1)NC(=O)[C@H](Cc1ccccc1)NC(=O)[C@@H]1CCCN1C(=O)[C@H](CCCNC(=N)N)NC(=O)C1(N)CCCCC1)C(=O)N[C@@H](CO)C(=O)N[C@@H](CCCNC(=N)N)C(=O)N1CCC[C@H]1C(=O)N[C@@H](CCCNC(=N)N)C(=O)N1CCC[C@H]1C(=O)N1CCC[C@H]1C(=O)N[C@@H](CCCNC(=N)N)C(=O)N1CCC[C@H]1C(=O)N[C@H](C(=O)N[C@@H](CCCNC(=N)N)C(N)=O)C(C)C [compound 99] (H-[Ac6c]RPFFPRPYLSRPRPPRPVR-NH2)	best binders	best binders	DnaK binding in the screening, in words ([3]; FP screening, DnaK variant not stated at the place): best binding
CC(C)C[C@H](NC(=O)[C@H](CO)NC(=O)[C@@H]1CCCN1C(=O)[C@H](CCCNC(=N)N)NC(=O)[C@@H]1CCCN1C(=O)[C@H](CCCCN)NC(=O)[C@H](CC(=O)O)NC(=O)[C@@H]1CCCN1C(=O)[C@H](CCCNC(=N)N)NC(=O)C1(N)CCCCC1)C(=O)N1CCC[C@H]1C(=O)N[C@@H](Cc1ccccc1)C(=O)N1CCC[C@H]1C(=O)N[C@@H](CCCNC(=N)N)C(=O)N1CCC[C@H]1C(=O)N1CCC[C@H]1C(=O)N[C@@H](CCCNC(=N)N)C(=O)N1CCC[C@H]1C(=O)N[C@H](C(=O)N[C@@H](CCCNC(=N)N)C(N)=O)C(C)C [compound 130] (H-[Ac6c]RPDKPRPSLPFPRPPRPVR-NH2)			Ki [5]: 8.46 µM
Chex-RPFFPRPYLPRSRPPRPVR-NH2 [compound 106, substituted analog of ARV-1502]	best binders	best binders	
Chex-RPSSPRPYLPSPRPPRPVR-NH2 [compound 83, substituted analog of ARV-1502]			ATPase activity of the S. aureus DnaK/DnaJ/GrpE system, normalized to activity without peptide (100%) [4]: more than 160%
Chex-RPDKPRPDKPRPRPPRPVR-NH2 [compound 108, substituted analog of ARV-1502]	bound neither	bound neither	
CC(C)C[C@H](NC(=O)[C@H](Cc1ccc(O)cc1)NC(=O)[C@@H]1CCCN1C(=O)[C@H](CCCNC(=N)N)NC(=O)[C@@H]1CCCN1C(=O)[C@H](Cc1ccccc1)NC(=O)[C@H](Cc1ccccc1)NC(=O)[C@@H]1CCCN1C(=O)[C@H](CCCNC(=N)N)NC(=O)C1(N)CCCCC1)C(=O)N1CCC[C@H]1C(=O)N[C@@H](CCCNC(=N)N)C(=O)N[C@@H](CCCCN)C(=O)N[C@@H](CCCNC(=N)N)C(=O)N1CCC[C@H]1C(=O)N1CCC[C@H]1C(=O)N[C@@H](CCCNC(=N)N)C(=O)N1CCC[C@H]1C(=O)N[C@H](C(=O)N[C@@H](CCCNC(=N)N)C(N)=O)C(C)C [peptide 105] (H-[Ac6c]RPFFPRPYLPRKRPPRPVR-NH2)	best binders	best binders	
Chex-RPDDPRPDLPRPRPPRPVR-NH2 [compound 53, substituted analog of ARV-1502]			increase of ATPase activity, S. aureus chaperone system [4]: ≥ 60%
